{
  "source": "patent US10154976B2",
  "about": "“System and method for delivering protease inhibitors” (Bordoloi Biotech, LLC, priority 2013, dated 2018)",
  "key": {"plasmin [1]": {"target": "T1, plasmin (Homo sapiens, UniProt P00747)", "T1 sequence (P00747 97-580 limits assumed)": "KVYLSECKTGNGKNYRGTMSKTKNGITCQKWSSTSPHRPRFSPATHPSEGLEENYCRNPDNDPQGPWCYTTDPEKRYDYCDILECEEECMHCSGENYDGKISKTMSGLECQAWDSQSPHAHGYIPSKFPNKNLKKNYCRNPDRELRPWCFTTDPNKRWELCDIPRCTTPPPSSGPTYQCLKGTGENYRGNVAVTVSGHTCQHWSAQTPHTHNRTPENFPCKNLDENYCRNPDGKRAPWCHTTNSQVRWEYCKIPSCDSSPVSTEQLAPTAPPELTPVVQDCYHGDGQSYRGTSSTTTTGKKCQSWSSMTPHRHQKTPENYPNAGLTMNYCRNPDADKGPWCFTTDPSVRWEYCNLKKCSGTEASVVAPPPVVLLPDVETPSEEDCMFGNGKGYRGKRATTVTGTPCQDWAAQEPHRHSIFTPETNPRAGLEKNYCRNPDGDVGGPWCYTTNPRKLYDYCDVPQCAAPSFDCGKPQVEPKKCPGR", "T1 sequence (P00747 581-810 limits assumed)": "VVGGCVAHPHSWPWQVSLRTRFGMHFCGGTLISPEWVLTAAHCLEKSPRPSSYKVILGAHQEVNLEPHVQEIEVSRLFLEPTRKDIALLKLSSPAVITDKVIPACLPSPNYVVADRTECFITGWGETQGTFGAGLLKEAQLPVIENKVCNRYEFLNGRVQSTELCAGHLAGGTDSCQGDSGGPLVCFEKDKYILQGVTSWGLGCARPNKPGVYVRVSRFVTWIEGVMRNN", "experiment": "Gravimetric fibrin clot degradation by plasmin, single 48 hour incubation", "format": "biochemical", "parameters": "TA delays the conversion of plasminogen to plasmin; purchased Sigma P1867"}, "plasmin [2]": {"target": "T1, plasmin", "experiment": "Gravimetric fibrin clot degradation in plasmin medium freshly exchanged every 24 hours;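 also: fibrin clots formed from bovine fibrinogen and thrombin in 96-well plates, weighed each day after plasmin exposure, percent degradation relative to original clot weight, with PBS-only no-plasmin controls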", "description": "Also, a gravimetric in vitro method has been developed for a degradation study of a fibrin sealant in a plasmin medium at pH 7.4 and 37° C., where the medium has been freshly exchanged every twenty-four hours. Further investigation into the described degradation of fibrin sealant was undertaken for up to four consecutive days.\nA preparation of fibrinogen solution was prepared as described herein: • 1. Prepared a 10 percent solution of fibrinogen by dissolving 1.4 gms of bovine fibrinogen (Sigma F8630) in 14 ml of PBS. The solution was incubated at 37° C. with occasional swirling for 1 hour or till fibrinogen is completely dissolved. • 2. Molecular weight of TA is 157 grams. Three and half millimolar (0.55 mg TA/ml) suspension of 5 percent and 30 percent TA/PLGA were prepared by dispersing 50 mg of 5 percent loaded TA/PLGA and 8.3 mg of 30 percent loaded TA/PLGA in 4.5 ml of 10 percent fibrinogen solution, respectively, Table 7. A 10 percent Fibrinogen solution without TA was used as the negative control.\nNext, the fibrin clots in the ninety-six well plate were prepared as follows: • 1. Two and a half mg of Thrombin (600 units/mg) were dissolved in 1 ml of 375 mM CaCl2 solution in PBS (1500 U/ml). Seven microliters (10.5 U) were added to each well of the labeled 96 well plates. • 3. The fibrinogen solutions (with no TA/PLGA that is 0 percent, 5 percent loaded TA/PLGA and 30 percent loaded TA/PLGA) were mixed well and 100 microliter aliquots of 10 percent fibrinogen with or without TA/PLGA were added to the wells containing thrombin solution. […] The plates were incubated at 37° C. temperature for one hour. Final concentration of CaCl2 was 25 mM. The plate was stored at 4° C. overnight after the clot was formed.\nNext, plasmin was added to the fibrin clots to begin the enzymatic degradation of the fibrin clots by plasmin as described herein: • 1. A 300× plasmin solution was prepared by dissolving 500 micrograms in 500 microliter PBS. A 2× stock was prepared by diluting 150 times in PBS and adding 100 microliters to each well of the 96 well plate. The final 1× concentration was 3.3 micrograms/ml in the solution. A no-plasmin PBS only control was used for each condition. • 2. Incubation was at 37° C. At every 24 hours, the 96 well plate was centrifuged at 1,000 rpm for five minutes at room temperature. The supernatant plasmin solutions were aspirated out from each well with micropipette leaving the clots at the bottom of the well. • 3. A set of fibrin clots for each condition each day were taken out for measuring their degradation by plasmin by weighing. Fresh 100 microliter of plasmin solution was added to the rest of the clots. Fibrin clots were removed for measuring their weights each day until the clots were completely degraded in the wells.\nData was collected as follows: • 1. The clots were picked up from the well with a pair of forceps and weighed. The percent degradation was calculated by 100−(Average wt of the plasmin treated clot/actual weight of the clot×100). • 2. The clots were placed on a glass slide and photographed.\nThe clot or sealant was exchanged with fresh plasmin solution of 3.3 micrograms/ml every 24 hours.\nThe clots were irrigated and exchanged with fresh plasmin solution of 3.3 micrograms/ml every 24 hours."}, "fibrin clot": {"test_system": "fibrin clot", "experiment": "Fibrin clot weight in a medium containing no plasmin (PBS only)", "parameters": "species or system Bovine", "conditions": "3 percent Ca-TA but without any plasmin; by Day-3 and Day-4", "procedure": "Incubated at 37 C. […] Repeated till the clots completely disappeared."}, "[3]": {"conditions": "Day 0, 3 percent Ca-TA (169.5 mE, 30 mg/ml), no PLGA, plasmin 3.3 μg/ml exchanged every 24 hours, pH 7.4, 37° C."}, "[4]": {"conditions": "Day 1, 3 percent Ca-TA, no PLGA, plasmin 3.3 μg/ml exchanged every 24 hours, pH 7.4, 37° C."}, "[5]": {"conditions": "Day 2, 3 percent Ca-TA, no PLGA, plasmin 3.3 μg/ml exchanged every 24 hours, pH 7.4, 37° C."}, "[6]": {"conditions": "Day 3, 3 percent Ca-TA, no PLGA, plasmin 3.3 μg/ml exchanged every 24 hours, pH 7.4, 37° C."}, "[7]": {"conditions": "Day 4, 3 percent Ca-TA, no PLGA, plasmin 3.3 μg/ml exchanged every 24 hours, pH 7.4, 37° C."}, "[8]": {"conditions": "TA 0.10 mM, plasmin 6.6 μg/ml, 37° C., 48 hours"}, "[9]": {"conditions": "TA 0.25 mM, plasmin 6.6 μg/ml, 37° C., 48 hours"}, "[10]": {"conditions": "TA 0.50 mM, plasmin 6.6 μg/ml, 37° C., 48 hours"}, "[11]": {"conditions": "TA 1.00 mM, plasmin 6.6 μg/ml, 37° C., 48 hours"}, "[12]": {"conditions": "Day 0, Aprotinin 1500 KIU without PLGA-2, plasmin 3.3 micrograms/ml fresh every 24 hours, 37 C"}, "[13]": {"conditions": "Day 1, Aprotinin 1500 KIU without PLGA-2, plasmin 3.3 micrograms/ml fresh every 24 hours, 37 C"}, "[14]": {"conditions": "Day 2, Aprotinin 1500 KIU without PLGA-2, plasmin 3.3 micrograms/ml fresh every 24 hours, 37 C"}, "[15]": {"conditions": "Day 3, Aprotinin 1500 KIU without PLGA-2, plasmin 3.3 micrograms/ml fresh every 24 hours, 37 C"}, "[16]": {"conditions": "Day 4, Aprotinin 1500 KIU without PLGA-2, plasmin 3.3 micrograms/ml fresh every 24 hours, 37 C"}},
  "data": [
    {"compound": "NCC1CCC(C(=O)[O-])CC1.NCC1CCC(C(=O)[O-])CC1.[Ca+2]", "note": "(stereo not drawn) [Ca-TA, Calcium Tranexamate]", "values": [
      {"measurement": "concentration adequate to give a stable clot without any significant degradation", "setting": "plasmin [1]; same manner as FIG. 5 with Ca-TA (FIG. 12)", "value": "about 0.1 mE"},
      {"measurement": "increase in volume or weight of clot, of its original weight", "setting": "plasmin [2]; 3 percent Ca-TA, plasmin solution, on Day-1 and Day-2", "value": "more than 50%"},
      {"measurement": "Average Weight of fibrin clot", "setting": "plasmin [2]; [3]", "value": 113.0, "unit": "mg"},
      {"measurement": "Fibrin clot weight, set A", "setting": "plasmin [2]; [3]", "value": 113, "unit": "mg"},
      {"measurement": "Fibrin clot weight, set B", "setting": "plasmin [2]; [3]", "value": 113, "unit": "mg"},
      {"measurement": "Fibrin clot weight, set C", "setting": "plasmin [2]; [3]", "value": 113, "unit": "mg"},
      {"measurement": "percent degradation", "setting": "plasmin [2]; [3]", "value": 0, "unit": "%"},
      {"measurement": "Average Weight of fibrin clot", "setting": "plasmin [2]; [4]", "value": 179.7, "unit": "mg"},
      {"measurement": "Fibrin clot weight, set A", "setting": "plasmin [2]; [4]", "value": 175, "unit": "mg"},
      {"measurement": "Fibrin clot weight, set B", "setting": "plasmin [2]; [4]", "value": 160, "unit": "mg"},
      {"measurement": "Fibrin clot weight, set C", "setting": "plasmin [2]; [4]", "value": 204, "unit": "mg"},
      {"measurement": "Average Weight of fibrin clot", "setting": "plasmin [2]; [5]", "value": 185.0, "unit": "mg"},
      {"measurement": "Fibrin clot weight, set A", "setting": "plasmin [2]; [5]", "value": 172, "unit": "mg"},
      {"measurement": "Fibrin clot weight, set B", "setting": "plasmin [2]; [5]", "value": 174, "unit": "mg"},
      {"measurement": "Fibrin clot weight, set C", "setting": "plasmin [2]; [5]", "value": 209, "unit": "mg"},
      {"measurement": "Average Weight of fibrin clot", "setting": "plasmin [2]; [6]", "value": 123.3, "unit": "mg"},
      {"measurement": "Fibrin clot weight, set A", "setting": "plasmin [2]; [6]", "value": 130, "unit": "mg"},
      {"measurement": "Fibrin clot weight, set B", "setting": "plasmin [2]; [6]", "value": 100, "unit": "mg"},
      {"measurement": "Fibrin clot weight, set C", "setting": "plasmin [2]; [6]", "value": 140, "unit": "mg"},
      {"measurement": "Average Weight of fibrin clot", "setting": "plasmin [2]; [7]", "value": 0.0, "unit": "mg"},
      {"measurement": "Fibrin clot weight, set A", "setting": "plasmin [2]; [7]", "value": 0, "unit": "mg"},
      {"measurement": "Fibrin clot weight, set B", "setting": "plasmin [2]; [7]", "value": 0, "unit": "mg"},
      {"measurement": "Fibrin clot weight, set C", "setting": "plasmin [2]; [7]", "value": 0, "unit": "mg"},
      {"measurement": "percent degradation", "setting": "plasmin [2]; [7]", "value": 100, "unit": "%"},
      {"measurement": "increase in volume or weight of clot", "setting": "fibrin clot", "value": "more than 50%"}
    ]},
    {"compound": "NC[C@H]1CC[C@H](C(=O)O)CC1", "note": "[TA, trans-4-aminomethyl-cyclohexane-1-carboxylic acid]", "values": [
      {"measurement": "Average Weight of fibrin clot", "setting": "plasmin [1]; [8]", "value": 95.3, "unit": "mg"},
      {"measurement": "Fibrin clot weight, set A", "setting": "plasmin [1]; [8]", "value": 96, "unit": "mg"},
      {"measurement": "Fibrin clot weight, set B", "setting": "plasmin [1]; [8]", "value": 99, "unit": "mg"},
      {"measurement": "Fibrin clot weight, set C", "setting": "plasmin [1]; [8]", "value": 91, "unit": "mg"},
      {"measurement": "Percentage Degradation", "setting": "plasmin [1]; [8]", "value": 11.8, "unit": "%"},
      {"measurement": "Average Weight of fibrin clot", "setting": "plasmin [1]; [9]", "value": 98.0, "unit": "mg"},
      {"measurement": "Fibrin clot weight, set A", "setting": "plasmin [1]; [9]", "value": 108, "unit": "mg"},
      {"measurement": "Fibrin clot weight, set B", "setting": "plasmin [1]; [9]", "value": 104, "unit": "mg"},
      {"measurement": "Fibrin clot weight, set C", "setting": "plasmin [1]; [9]", "value": 82, "unit": "mg"},
      {"measurement": "Percentage Degradation", "setting": "plasmin [1]; [9]", "value": 9.3, "unit": "%"},
      {"measurement": "Average Weight of fibrin clot", "setting": "plasmin [1]; [10]", "value": 105.3, "unit": "mg"},
      {"measurement": "Fibrin clot weight, set A", "setting": "plasmin [1]; [10]", "value": 102, "unit": "mg"},
      {"measurement": "Fibrin clot weight, set B", "setting": "plasmin [1]; [10]", "value": 106, "unit": "mg"},
      {"measurement": "Fibrin clot weight, set C", "setting": "plasmin [1]; [10]", "value": 108, "unit": "mg"},
      {"measurement": "Percentage Degradation", "setting": "plasmin [1]; [10]", "value": 2.5, "unit": "%"},
      {"measurement": "Average Weight of fibrin clot", "setting": "plasmin [1]; [11]", "value": 104.7, "unit": "mg"},
      {"measurement": "Fibrin clot weight, set A", "setting": "plasmin [1]; [11]", "value": 100, "unit": "mg"},
      {"measurement": "Fibrin clot weight, set B", "setting": "plasmin [1]; [11]", "value": 108, "unit": "mg"},
      {"measurement": "Fibrin clot weight, set C", "setting": "plasmin [1]; [11]", "value": 106, "unit": "mg"},
      {"measurement": "Percentage Degradation", "setting": "plasmin [1]; [11]", "value": 3.0, "unit": "%"},
      {"measurement": "concentration sufficient for maximum activity (resistance against fibrin clot degradation by plasmin)", "setting": "plasmin [1]; TA concentration, plasmin 6.6 μg/ml, 37° C., 48 hours", "value": 0.1, "unit": "mM"},
      {"measurement": "concentration sufficient for maximum activity, stated in ppm", "setting": "plasmin [1]; plasmin 6.6 μg/ml, 37° C., 48 hours", "value": 157, "unit": "ppm"}
    ]},
    {"compound": "Aprotinin", "values": [
      {"measurement": "Average Weight of fibrin clot", "setting": "plasmin [2]; [12]", "value": 109.13, "unit": "mg"},
      {"measurement": "Fibrin clot weight, set A", "setting": "plasmin [2]; [12]", "value": 109.30, "unit": "mg"},
      {"measurement": "Fibrin clot weight, set B", "setting": "plasmin [2]; [12]", "value": 108.50, "unit": "mg"},
      {"measurement": "Fibrin clot weight, set C", "setting": "plasmin [2]; [12]", "value": 109.60, "unit": "mg"},
      {"measurement": "percent degradation", "setting": "plasmin [2]; [12]", "value": 0.00, "unit": "%"},
      {"measurement": "Average Weight of fibrin clot", "setting": "plasmin [2]; [13]", "value": 100.60, "unit": "mg"},
      {"measurement": "Fibrin clot weight, set A", "setting": "plasmin [2]; [13]", "value": 100.20, "unit": "mg"},
      {"measurement": "Fibrin clot weight, set B", "setting": "plasmin [2]; [13]", "value": 98.10, "unit": "mg"},
      {"measurement": "Fibrin clot weight, set C", "setting": "plasmin [2]; [13]", "value": 103.50, "unit": "mg"},
      {"measurement": "percent degradation", "setting": "plasmin [2]; [13]", "value": 7.82, "unit": "%"},
      {"measurement": "Average Weight of fibrin clot", "setting": "plasmin [2]; [14]", "value": 15.03, "unit": "mg"},
      {"measurement": "Fibrin clot weight, set A", "setting": "plasmin [2]; [14]", "value": 14.60, "unit": "mg"},
      {"measurement": "Fibrin clot weight, set B", "setting": "plasmin [2]; [14]", "value": 13.80, "unit": "mg"},
      {"measurement": "Fibrin clot weight, set C", "setting": "plasmin [2]; [14]", "value": 16.70, "unit": "mg"},
      {"measurement": "percent degradation", "setting": "plasmin [2]; [14]", "value": 86.22, "unit": "%"},
      {"measurement": "Average Weight of fibrin clot", "setting": "plasmin [2]; [15]", "value": 0.00, "unit": "mg"},
      {"measurement": "Fibrin clot weight, set A", "setting": "plasmin [2]; [15]", "value": 0.00, "unit": "mg"},
      {"measurement": "Fibrin clot weight, set B", "setting": "plasmin [2]; [15]", "value": 0.00, "unit": "mg"},
      {"measurement": "Fibrin clot weight, set C", "setting": "plasmin [2]; [15]", "value": 0.00, "unit": "mg"},
      {"measurement": "percent degradation", "setting": "plasmin [2]; [15]", "value": 100.00, "unit": "%"},
      {"measurement": "Average Weight of fibrin clot", "setting": "plasmin [2]; [16]", "value": 0.00, "unit": "mg"},
      {"measurement": "Fibrin clot weight, set A", "setting": "plasmin [2]; [16]", "value": 0.00, "unit": "mg"},
      {"measurement": "Fibrin clot weight, set B", "setting": "plasmin [2]; [16]", "value": 0.00, "unit": "mg"},
      {"measurement": "Fibrin clot weight, set C", "setting": "plasmin [2]; [16]", "value": 0.00, "unit": "mg"},
      {"measurement": "percent degradation", "setting": "plasmin [2]; [16]", "value": 100.00, "unit": "%"}
    ]}
  ]
}
